Results: ChEMBL document CHEMBL1201862, “PubChem BioAssay data set” (2004)
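Test compounds were applied to cells in 96-well plates for 48 hours at 5 doses. GI50 marks 50% less growth.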 The source made the active and inactive calls. No stated cut-off is given here; in the data, active = GI50 up to about 1.1 µM and inactive = higher.

Experiments:
Test in all cases: NCI tumour cell line growth inhibition, 48 h
786-0 = system: 786-0
A498 = system: A498
A549 = system: A549
ACHN = system: ACHN
CCRF-CEM = system: CCRF-CEM
COLO 205 = system: COLO 205
DLD-1 = system: DLD-1
DMS-114 = system: DMS-114
DMS-273 = system: DMS-273
EKVX = system: EKVX
HCC 2998 = system: HCC 2998
HCT-116 = system: HCT-116
HL-60 = system: HL-60
HOP-18 = system: HOP-18
HOP-62 = system: HOP-62
HOP-92 = system: HOP-92
HT-29 = system: HT-29
K562 = system: K562
KM-20L2 = system: KM-20L2
KM12 = system: KM12
LOX IMVI = system: LOX IMVI
LXFL 529 = system: LXFL 529
M14 = system: M14
M19-MEL = system: M19-MEL
MOLT-4 = system: MOLT-4
Malme-3M = system: Malme-3M
NCI-H226 = system: NCI-H226
NCI-H23 = system: NCI-H23
NCI-H522 = system: NCI-H522
OVCAR-3 = system: OVCAR-3
OVCAR-5 = system: OVCAR-5
OVCAR-8 = system: OVCAR-8
RPMI-8226 = system: RPMI-8226
RXF 393 = system: RXF 393
SF-268 = system: SF-268
SF-295 = system: SF-295
SF-539 = system: SF-539
SK-MEL-28 = system: SK-MEL-28
SK-MEL-2 = system: SK-MEL-2
SK-MEL-5 = system: SK-MEL-5
SK-OV-3 = system: SK-OV-3
SN12C = system: SN12C
SNB-19 = system: SNB-19
SNB-75 = system: SNB-75
SNB-78 = system: SNB-78
SW-620 = system: SW-620
TK-10 = system: TK-10
U-251 = system: U-251
UACC-257 = system: UACC-257
UACC-62 = system: UACC-62
UO-31 = system: UO-31
CAKI-1 = system: CAKI-1
HCT-15 = system: HCT-15
IGROV-1 = system: IGROV-1
OVCAR-4 = system: OVCAR-4
SR = system: SR

CC1(C)c2ccccc2C(C)(C)C(C(=O)Nc2ccccc2)C1C(=O)O (stereo not drawn)
GI50 (786-0): > 100 µM (inactive)
GI50 (A498): > 100 µM (inactive)
GI50 (A549): > 100 µM (inactive)
GI50 (ACHN): > 100 µM (inactive)
GI50 (CCRF-CEM): > 100 µM (inactive)
GI50 (COLO 205): > 100 µM (inactive)
GI50 (DLD-1): > 100 µM (inactive)
GI50 (DMS-114): 91.6 µM (inactive)
GI50 (DMS-273): > 100 µM (inactive)
GI50 (EKVX): > 100 µM (inactive)
GI50 (HCC 2998): > 100 µM (inactive)
GI50 (HCT-116): 95.1 µM (inactive)
GI50 (HL-60): > 100 µM (inactive)
GI50 (HOP-18): > 100 µM (inactive)
GI50 (HOP-62): > 100 µM (inactive)
GI50 (HOP-92): > 100 µM (inactive)
GI50 (HT-29): > 100 µM (inactive)
GI50 (K562): > 100 µM (inactive)
GI50 (KM-20L2): > 100 µM (inactive)
GI50 (KM12): > 100 µM (inactive)
GI50 (LOX IMVI): > 100 µM (inactive)
GI50 (LXFL 529): > 100 µM (inactive)
GI50 (M14): > 100 µM (inactive)
GI50 (M19-MEL): > 100 µM (inactive)
GI50 (MOLT-4): > 100 µM (inactive)
GI50 (Malme-3M): > 100 µM (inactive)
GI50 (NCI-H226): > 100 µM (inactive)
GI50 (NCI-H23): > 100 µM (inactive)
GI50 (NCI-H522): > 100 µM (inactive)
GI50 (OVCAR-3): > 100 µM (inactive)
GI50 (OVCAR-5): > 100 µM (inactive)
GI50 (OVCAR-8): > 100 µM (inactive)
GI50 (RPMI-8226): > 100 µM (inactive)
GI50 (RXF 393): > 100 µM (inactive)
GI50 (SF-268): > 100 µM (inactive)
GI50 (SF-295): > 100 µM (inactive)
GI50 (SF-539): > 100 µM (inactive)
GI50 (SK-MEL-28): > 100 µM (inactive)
GI50 (SK-MEL-2): > 100 µM (inactive)
GI50 (SK-MEL-5): > 100 µM (inactive)
GI50 (SK-OV-3): > 100 µM (inactive)
GI50 (SN12C): > 100 µM (inactive)
GI50 (SNB-19): > 100 µM (inactive)
GI50 (SNB-75): > 100 µM (inactive)
GI50 (SNB-78): > 100 µM (inactive)
GI50 (SW-620): > 100 µM (inactive)
GI50 (TK-10): > 100 µM (inactive)
GI50 (U-251): > 100 µM (inactive)
GI50 (UACC-257): > 100 µM (inactive)
GI50 (UACC-62): > 100 µM (inactive)
GI50 (UO-31): > 100 µM (inactive)

NC(=O)OCC1=C(COC(N)=O)C(=O)c2c(O)ccc(O)c2C1=O
GI50 (A498): > 100 µM (inactive)
GI50 (A549): > 100 µM (inactive)
GI50 (ACHN): > 100 µM (inactive)
GI50 (CAKI-1): > 100 µM (inactive)
GI50 (CCRF-CEM): 44.7 µM (inactive)
GI50 (COLO 205): 58.7 µM (inactive)
GI50 (DLD-1): > 100 µM (inactive)
GI50 (DMS-114): > 100 µM (inactive)
GI50 (DMS-273): > 100 µM (inactive)
GI50 (EKVX): > 100 µM (inactive)
GI50 (HCC 2998): > 100 µM (inactive)
GI50 (HCT-116): > 100 µM (inactive)
GI50 (HCT-15): > 100 µM
GI50 (HL-60): 45.2 µM (inactive)
GI50 (HOP-18): > 100 µM (inactive)
GI50 (HOP-62): > 100 µM (inactive)
GI50 (HOP-92): > 100 µM (inactive)
GI50 (HT-29): > 100 µM (inactive)
GI50 (IGROV-1): > 100 µM (inactive)
GI50 (K562): 61.9 µM (inactive)
GI50 (KM-20L2): > 100 µM (inactive)
GI50 (KM12): > 100 µM (inactive)
GI50 (LXFL 529): > 100 µM (inactive)
GI50 (M14): > 100 µM (inactive)
GI50 (M19-MEL): 3.46 µM (inactive)
GI50 (MOLT-4): 55.8 µM (inactive)
GI50 (Malme-3M): > 100 µM (inactive)
GI50 (NCI-H226): > 100 µM (inactive)
GI50 (NCI-H23): > 100 µM (inactive)
GI50 (NCI-H522): > 100 µM (inactive)
GI50 (OVCAR-3): > 100 µM (inactive)
GI50 (OVCAR-4): > 100 µM (inactive)
GI50 (OVCAR-5): > 100 µM (inactive)
GI50 (OVCAR-8): > 100 µM (inactive)
GI50 (RPMI-8226): > 100 µM (inactive)
GI50 (SF-268): > 100 µM (inactive)
GI50 (SF-295): > 100 µM (inactive)
GI50 (SF-539): > 100 µM (inactive)
GI50 (SK-MEL-28): > 100 µM (inactive)
GI50 (SK-MEL-2): 78.7 µM (inactive)
GI50 (SK-MEL-5): 48 µM (inactive)
GI50 (SK-OV-3): > 100 µM (inactive)
GI50 (SN12C): > 100 µM (inactive)
GI50 (SNB-75): > 100 µM (inactive)
GI50 (SNB-78): > 100 µM (inactive)
GI50 (SR): > 100 µM (inactive)
GI50 (SW-620): 61.1 µM (inactive)
GI50 (TK-10): > 100 µM (inactive)
GI50 (U-251): > 100 µM (inactive)
GI50 (UACC-257): > 100 µM (inactive)
GI50 (UACC-62): 27.3 µM (inactive)
GI50 (UO-31): > 100 µM (inactive)
